Reference: a melting point compilation (Tetko et al.; mined from patent text by program, amines drawn as free bases though some values may be those of a salt)

melting point [°C] | Compound
179 to 181 | Cc1nc(-c2cccnc2)c(C)[nH]1
115 | CCOC(=O)[C@H]1CC[C@@H](c2ccccc2)N1C(=O)CNC(=O)Nc1cccc(C)c1 (racemic)
193 to 195 | O=c1ccc(-c2c(-c3ccccc3)nn3ccccc23)nn1[C@H]1CC[C@@H](C(=O)O)CC1
155 to 158 | CNc1ccc2c(c1)nc(CCc1ccc(C#N)cc1)n2C
> 260 | O=C1c2ccccc2C(=O)c2sc(-c3ccncc3)nc21
127 to 130 | CC(=O)N1CCN=C1COc1cccc(C)c1C
149 | Cc1cnc2c(c1)CCCC2C(N)=S (stereo not drawn)
158 to 160 | CC(C)(C)OC(=O)CCc1cccc(-c2nc(=O)c3ccc(F)cc3s2)n1
192 to 194 | CNC(=O)Nc1nnc(C(F)(F)F)s1
193 to 195 | O=S(=O)(c1cc(-c2ccncc2)sc1-c1ccncc1)N1CCCC1
175 to 177 | CNC(=NS(=O)(=O)N1CCCCC1)N1CC(c2ccccc2)C(c2ccc(Cl)cc2)=N1 (stereo not drawn)
183 to 185 | O=C(Nc1ccc(CCCCn2ccnn2)cc1)c1coc(C=Cc2ccc(C(F)(F)F)cc2)n1
110 to 119 | CON=C(C(C)=C(ON)c1ccccc1C(=NOC)C(=O)OC)c1ccc(F)cc1F
122 to 124 | CCOC(=O)C1=C(CSC(=N)N)NC(C)=C(C(=O)OC)C1c1cccc([N+](=O)[O-])c1 (single isomer, unassigned; (+))
158 to 159 | Cc1c(C)c(NC(=O)CC(C)(C)C)c2c(c1C)C(=O)C(C)(C)O2
106 to 110 | CC(C)NCC(O)COc1cccc2c1CC1OC1C2 (stereo not drawn)
204 to 205 | O=Cc1ccc(NC(=O)c2cc(F)cc(N3CCOCC3)c2)c2ccccc12
198 to 200 | CNC(=O)Nc1nnc(C(F)F)s1
248 to 250 | N#Cc1cnc2cc(Br)sc2c1Nc1ccc(Oc2ccccc2)cc1
209 to 211 | O=C1NN=C(c2cc3ccccc3o2)CO1
147 to 150 | Cc1ccccc1C1(CNC(=O)Nc2c(C(C)C)cccc2C(C)C)CCCC1
171 to 172 | CC1=C(C(=O)OC(C)(C)C)C(c2ccc(F)c(Br)c2)C(C(=O)OC(C)(C)C)=C(C)N1
62 to 64 | CCOC(=O)CCC(=O)NCc1ccc(N)cc1
148 to 150 | Oc1ccc(OCCN2CCCCC2)cc1

melting point [°C] | Compound
180 to 181 | CC(C)c1nnnn1-c1cc(C(=O)O)cc(-c2ccc(Cl)cn2)c1
167 to 169 | CCn1c(-c2ccnc3ccccc23)nc(-c2ccncc2)c1-c1ccc(Cl)cc1
145 | COc1cc(OCC(=O)O)c(C)cc1SCc1ccc(OCc2ccc(C(F)(F)F)cc2)cc1
159 to 162 | COC(=O)C=Cc1cc([N+](=O)[O-])ccc1Cl
160 to 162 | Cc1nc(-c2cc([N+](=O)[O-])ccc2F)cs1
135 to 137 | CCN1c2cscc2CN(C)c2ccccc21
134 to 136 | NC(=O)CNC(=O)c1ccc(-c2cccc3cc(Cc4cccc(C(F)(F)F)c4)sc23)cc1
116 to 118 | CCC(CC)Nc1c([N+](=O)[O-])cc(CC(=O)O)c(C(C)C)c1[N+](=O)[O-]
72 to 75 | COC(=O)c1ccc(N2CCCC2)c(NC(=O)C(CSC(C)=O)Cc2ccccc2)c1 (stereo not drawn)
184 to 186 | C/C(=C\C=C(c1ccccc1)c1ccccc1)C(=O)O
109 to 110 | COC(=O)c1cn(Cc2ccc3cc(OCc4ccccc4)ccc3c2)cc1-c1ccccc1
165 to 166 | CCOC(=O)C(c1ccncc1)C(c1ccccc1)c1ccc(OC)c(OC2CCCC2)c1 (stereo not drawn)
152 to 155 | CCC(C)C(NC(=O)OCc1ccccc1)C(=O)NC(Cc1c[nH]c2ccccc12)C(=O)OC (stereo not drawn)
138 | CCCCCS(=O)(=O)NC(=O)/C=C/c1ccc(OCCOC)cc1OCc1ccc(Cl)cc1Cl
150 to 152 | COc1cc2c(cc1OC)CC(Nc1ccc(O)cc1)CC2 (stereo not drawn)
262 | Cc1cccc(-c2[nH]nc(N3CCN(C)CC3)c2-c2ccncc2)c1
82 to 83 | Nc1ccccc1Nc1ccccc1F
129 to 130 | COc1ccc2c(c1)[C@@H]1c3ccccc3N[C@@H]1C2 (relative stereo)
126 to 128 | COc1cc(OC)cc(-c2nc[nH]c2-c2ccc(OC)c(O)c2F)c1
145 | CC(=NOCCOc1ccc(CC2SC(=O)N(C(c3ccccc3)(c3ccccc3)c3ccccc3)C2=O)cc1)c1ccc(-c2ccccc2)cc1 (stereo not drawn)
193 to 194 | O=[N+]([O-])c1ccc(CSC(=S)N2Cc3[nH]c4ccccc4c3CC2CO)cc1 (stereo not drawn)
167 to 169 | Clc1ccc(C(c2ccccc2)N2CCN(c3nc4cccc5c4n3CCC5)CC2)cc1 (stereo not drawn)
77 to 78 | C=CCN(c1ccc(Cl)cc1[N+](=O)[O-])S(=O)(=O)c1ccc(C)cc1
164 to 167 | O=C(NCc1cccnc1)c1ccc2n1Cc1ccccc1N(C(=O)c1ccc(-c3ccccc3Cc3nnn[nH]3)cc1)C2

melting point [°C] | Compound
154 to 156 | O=C1Nc2c(Cl)cccc2C1(O)c1ccccc1 (stereo not drawn)
157 to 159 | CSc1nc([C@@H]2C[C@H]2c2nc3ccccc3n2C)cc(-n2nc(C)nc2C)n1 (relative stereo)
161 to 162 | COc1cc(COc2nn(-c3ccccc3)cc2C=O)ccc1OCc1nc(-c2cccc(C#N)c2)oc1C
161 to 162 | CCN(CC)CCOc1ccc(-c2oc3ccc(Cl)cc3c2C(=O)c2cc(C)cc(C)c2)cc1
130 to 131 | COc1cc2ccn(C(=O)c3ccc(-c4ccc(-c5noc(C)n5)cc4C)cc3)c2cc1OCCN(C)C
113 | COCCCNCCCc1ccc(-c2cnc(N)c(C(=O)Nc3cccnc3)n2)cc1
218 | CCn1cc(-c2ccc(O)cc2)nc1SC
130 | Cc1cc(C#N)ccc1-c1ccc(C=O)cc1
202 to 203 | Cc1c(NC(=O)c2ccc(-c3ccc(C(F)(F)F)cc3)cc2F)ccc2cc(CN3CCCC3)cnc12
359 to 361 | Cn1cc(-c2cc3cccnc3[nH]2)c2ccc(C(=O)O)cc21
> 260 | O=Cc1nn(-c2ccc(O)cc2)c2c1CCCC2Cc1cccc2ccccc12 (stereo not drawn)
80 to 83 | C[C@H](OC(=O)c1ccccc1)[C@@H](O)[C@@H](CO)OCc1ccccc1Cl
93 to 95 | CCOC(=O)c1cc(C(C)C)n(-c2ccc(Cl)cc2Cl)n1
182 to 185 | N=C(N)c1noc2cc([N+](=O)[O-])ccc12
213 to 215 | O=C1CC2(CCCCC2)CC(=O)N1c1ccncc1
> 350 | O=C1N=c2cc(O)c(O)c(O)c2=NC1=O
142 to 144 | Cc1[nH]nc(C(C)C)c1Oc1cc(C#N)cc(C#N)c1
160 to 162 | Cc1ccc(C2C=C3C(=CCC4=C3NN(C)CC4)S2=O)cc1 (stereo not drawn)
102 to 104 | Cn1ccn(CO)c1=O
127 to 128 | COc1ccc(C2CCN(CCC3CCCCc4ccccc43)CC2)cc1OC (stereo not drawn)
114 to 117 | CC(=O)N1CCC(n2nc(-c3c(-c4ccccc4)nn4ccccc34)ccc2=O)CC1
73 | COC(=O)c1cncc(OC)n1
107 to 109 | CCOC(=O)Oc1cc2occ(C(=O)O)c(=O)c2cc1OC(=O)OCC
194 to 201 | COC(=N)c1ccc(-c2cc3ncn([C@H](C)[C@](O)(Cn4cncn4)c4ccc(F)cc4F)c(=O)c3s2)cc1

melting point [°C] | Compound
126 to 132 | CCCCOc1cc2ncnc(N3CCc4ccc(Cl)cc43)c2cc1OC
156 to 158 | Cc1ccc(S(=O)(=O)ON=C(c2cccc([N+](=O)[O-])c2)n2nc(C)cc2N)cc1
96 to 98 | CCOC(=O)Cc1cccc(-c2nc(COc3ccc(CO)cc3OC)c(C)o2)c1
55 to 56 | COC(=O)C1CC1c1ccc(OCc2cccc(Oc3ccccc3)c2)cc1 (stereo not drawn)
107 to 109 | CCC(Oc1c(Cl)cccc1Cl)C(=O)OC1CC(O)C=C2C=CC(C)C(CCC3CC(O)CC(=O)O3)C21 (mixture of isomers)
76 to 80 | CCN(CC)CCNC(=NC#N)NCCCSc1nccc(NC(N)=NCC(F)(F)F)n1
116 to 118 | CCN(CC)CCNC(=O)N1CCCC(S(=O)(=O)c2ccc(C)cc2)C1 (stereo not drawn)
48 to 49 | CC(=O)OCCSCCOc1ccc(CCC(=O)O)cc1
155 to 156 | CCOC(=O)C(C)(C)Sc1ncnc2c(O)n(C)nc12
83 to 85 | Brc1ccc(OCc2ccc3ccccc3c2)nc1
140 to 143 | O=C(O)CN1CCN(CCNC(=O)c2cc3ccc(C4OC(CO)C(O)C(O)C4O)cc3oc2=O)CC1 (stereo not drawn)
65.4 to 66.1 | CCOc1ccc(Br)c(F)c1Cl
> 250 | CC(C)CN1CCCCC1C(=O)Nc1cc(C(F)(F)F)ccc1-c1cc(Oc2cccc3[nH]c(=O)c(N)nc23)ncn1 (stereo not drawn)
124 to 128 | COc1c(Cl)ccc(-c2nc(C(=O)OC(C)C)cc(Cl)c2Cl)c1F
230 to 231 | O=C(O)C1CNC(C(=O)O)c2[nH]c3ccccc3c21 (stereo not drawn)
235 to 240 | CCc1noc(-c2cc3c(cn2)[nH]c2ccc(N(C)C)cc23)n1
283 to 284 | COc1cccc2c(=O)sc(C(=O)O)cc12
267 to 269 | c1cc2c(cc(-c3nnn[nH]3)c3nnnn32)s1
169 to 170 | O=S(=O)(Nc1ccc2c(OCc3ccc(-c4ccc(Cl)c(Cl)c4)cc3Cl)cccc2c1)C(F)(F)F
187 to 189 | Cc1cnc(N)c(S(N)(=O)=O)c1
151 | CC(=O)OC1CSC(Sc2ccc3ccccc3c2)C(OC(C)=O)C1OC(C)=O (stereo not drawn)
146 to 148 | NCCOc1cccc2c1CC(=O)N2

Compound | melting point [°C]
CCOC(=O)NC(=O)P(=O)(OCC)OCC | 57 to 64
CC1(C)C(C=CC(=O)O)C1C(=O)OC(C#N)c1ccc(F)c(Oc2ccccc2)c1 (stereo not drawn) | 99
CC(C)NC(=O)Nc1ccc2c(c1Cl)C(c1ccccc1F)=NCC(=O)N2C | 130 to 140
OC(c1ccccc1)(c1ccncc1)c1ccc(F)cc1 (stereo not drawn) | 189 to 192
